These results are taken from patent publication US6291677A, “Compounds having activity as inhibitors of cytochrome P450RAI” (Allergan Sales, Inc., priority 2000, dated 2001).

The test system of data set [1] is RARβ. Briefly: chimeric receptor transactivation assay, RARβ. Format: cell-based. The note with it: unit assumed. From the text:
(§1) Assays described below measure the ability of a compound to bind to, and/or activate various retinoid receptor subtypes. When in these assays a compound binds to a given receptor subtype and activates the transcription of a reporter gene through that subtype, then the compound is considered an agonist of that receptor subtype. […] In the below described assays the ability of the compounds to bind to RARα, RARβ, RARγ,RXRα, RXRβ and RXRγ receptors, and the ability or inability of the compounds to activate transcription of a reporter gene through these receptor subtypes can be tested.
(§2) The results obtained in this assay are expressed in EC50 numbers, as they are also in the chimeric receptor transactivation assay. The results of ligand binding assay are expressed in Kd numbers.

The test system of data set [2] is RARγ. In words: chimeric receptor transactivation assay, RARγ. The note with it: unit assumed. Format: cell-based.
From the text: as §1, §2

In data set [3] the test system is RARα. In words: chimeric receptor transactivation assay, RARα. Format: cell-based. The following applies: unit assumed.
From the text: as §1, §2

Data set [4] deals with skin of hairless mice. Briefly: topical skin irritation test in hairless mice. Format: in vivo, female hairless mice (Crl:SKH1-hrBR). The note with it: once daily days 1 through 5, mean±SD. An excerpt:
Mice were housed individually throughout the dosing period.
Doses are disclosed as nmol/25 g.
The grading scale used is as follows:
Values can range from 0-9.
Values can range from 0-8.

Regarding `CN(C1CC1)C1CCC(C)(C)c2cc(C#Cc3ccc(C(=O)O)cc3)ccc21` (stereo not shown) [Compound 3, 4-[(5-Cyclopropyl-methyl-amino)-8,8-dimethyl-5,6,7,8-tetrahydro-naphthalene-2yl-ethynyl]-benzoic acid], the (EFFICACY) RAR β in data set [1] turned out to be 54%. Besides, the (EFFICACY) RAR γ in data set [2] was determined as 52%. In addition, the (EFFICACY) RAR α in data set [3] was determined as 28%.

Turning to `CC1(C)CCC(=O)c2ccc(C#Cc3ccc(CC(=O)O)cc3)cc21` [Compound 5, 4-[(8,8-Dimethyl-5-oxo-5,6,7,8-tetrahydro-naphthalene-2-yl-ethynyl)-phenyl]-acetic acid], the “Cutaneous Toxicity Score (Blackjack Score)” value (shortened to “Cutaneous Toxicity Score”) is 0 in data set [4] (100 nmole) and 6 ± 3 in data set [4] (1000 nmole). The same compound displayed a (EFFICACY) RAR β in data set [1] of 36%.

As to `CC1(C)CCC(=O)c2ccc(C#Cc3ccc(C(=O)O)c(F)c3)cc21` [Compound 10, 2-Fluoro-4-(8,8-dimethyl-5-oxo-5,6,7,8-tetrahydro-naphthalen-2yl-ethynyl)-benzoic acid], in data set [1], the (EFFICACY) RAR β is 86%. This compound also returned a (EFFICACY) RAR γ in data set [2] of 94%. Moreover, the (EFFICACY) RAR α in data set [3] is 146%.

For `CN(C1CC1)C1CCC(C)(C)c2cc(C#Cc3ccc(C(=O)O)c(F)c3)ccc21` (stereo not shown) [Compound 13, 4-[5-(Cyclopropyl-methyl-amino)-8,8-dimethyl-5,6,7,8-tetrahydro-naphthalene-2-yl-ethynyl]-2-fluoro benzoic acid], the (EFFICACY) RAR β in data set [1] amounted to 6.6%. Moreover, the (EFFICACY) RAR γ in data set [2] turned out to be 9%.

Consider `CC1(C)CCC(=O)c2ccc(C#Cc3ccc(CC(=O)O)c(F)c3)cc21` [Compound 15, [2-Fluoro-4-(8,8-dimethyl-5-oxo-5,6,7,8-tetrahydro-naphthalene-2-yl-ethynyl)phenyl]-acetic acid], for which the “Cutaneous Toxicity Score” value is 1 ± 1 in data set [4] (100 nmole) and 5 ± 2 in data set [4] (1000 nmole).

As to `CN(C1CC1)C1CCC(C)(C)c2cc(C#Cc3ccc(CC(=O)O)c(F)c3)ccc21` (stereo not shown) [Compound 18, [4-(5-(Cyclopropyl-methyl-amino)-8,8-dimethyl-5,6,7,8-tetrahydro-naphthalene-2-yl-ethynyl)-2-fluoro-phenyl]-acetic acid], the entries for the “Cutaneous Toxicity Score” value in data set [4] (100 nmole), in data set [4] (300 nmole) and in data set [4] (1000 nmole) were 0 ± 0, 1 ± 1 and 10 ± 2, respectively.

Turning to `CC1(C)CN(C2CC2)Cc2ccc(C#Cc3ccc(CC(=O)O)c(F)c3)cc21` [Compound 22, [4-(2-Cyclopropyl-4,4-dimethyl-1,2,34-tetrahydro-isoquinolin-6-yl-ethynyl)-2-fluoro-phenyl]-acetic acid], the “Cutaneous Toxicity Score” value in data set [4] (100 nmole) is 0 ± 0; in data set [4] (300 nmole) it was 0 ± 0; in data set [4] (1000 nmole), 1 ± 1.

For `CC1(C)CC(C)(C)c2cc(C#Cc3ccc(CC(=O)O)cc3)cc(C3CC3)c2O1` [Compound 36, [4-(8-Cyclopropyl-2,2,4,4-tetramethyl-chroman-6-yl-ethynyl)phenyl]acetic acid], the “Cutaneous Toxicity Score” value came to 1 ± 1 in data set [4] (100 nmole) and 11 ± 0 in data set [4] (1000 nmole).

`CC1(C)CC2(CC2)Oc2ccc(C#Cc3ccc(C(=O)O)cc3)cc21` [Compound 40, Benzoic acid, 4-[(3,4-dihydro-4,4-dimethylspiro[2H-1-benzopyran-2,1'-cyclopropane]-6-yl)ethynyl]-] displayed a (EFFICACY) RAR β in data set [1] of 126%. The same compound had a (EFFICACY) RAR γ in data set [2] of 140%. Besides, the (EFFICACY) RAR α in data set [3] stood at 207%.

`CC1(C)CC2(CC2)Oc2ccc(C#Cc3ccc(C(=O)O)c(F)c3)cc21` [Compound 44, 2-Fluoro-benzoic acid 4-[(3,4-dihydro-4,4-dimethylspiro[2H-1-benzopyran-2,1'-cyclopropane]-6-yl)ethynyl]-] had a (EFFICACY) RAR β in data set [1] of 100%. Further, the (EFFICACY) RAR γ in data set [2] is 116%. The (EFFICACY) RAR α in data set [3] is 138%.

For `CC1(C)CC2(CC2)Oc2c(C3CC3)cc(C#Cc3ccc(CC(=O)O)cc3)cc21` [Compound 48, Benzeneacetic acid, 4-[(8-cyclopropyl-3,4-dihydro-4,4-dimethylspiro[2H-1-benzopyran-2,1'-cyclopropane]-6-yl)ethynyl]-], the “Cutaneous Toxicity Score” value in data set [4] (100 nmole) was 1 ± 1; in data set [4] (300 nmole), 3 ± 1; in data set [4] (1000 nmole), 7 ± 2.

In the case of `CC1(C)CC2(CC2)Oc2c(C3CC3)cc(C#Cc3ccc(CC(=O)O)c(F)c3)cc21` [Compound 50, 4-[(8-Cyclopropyl-3,4-dihydro-4,4-dimethylspiro[2H-1-benzopyran-2,1'-cyclopropane]-6-yl)ethynyl]-2-fluoro-benzeneacetic acid], the “Cutaneous Toxicity Score” value in data set [4] (100 nmole) stood at 1 ± 0; in data set [4] (300 nmole), 3 ± 2; in data set [4] (1000 nmole) it was 8 ± 2.

Consider `CC1(C)CC2(CC2)Oc2c(C3CC3)cc(C(=O)Oc3ccc(CC(=O)O)cc3)cc21` [Compound 58], for which the “Cutaneous Toxicity Score” value in data set [4] (100 nmole), in data set [4] (300 nmole) and in data set [4] (1000 nmole) was 0 ± 0 throughout.

In the case of `COC1(c2ccc(C#Cc3ccc(C(=O)O)cc3)cc2)CC1` [Compound 69, 4-[4-(1-Methoxycyclopropyl)-phenylethynyl]-benzoic acid], the (EFFICACY) RAR β in data set [1] is 50%. The (EFFICACY) RAR γ in data set [2] amounted to 31%. Further, the (EFFICACY) RAR α in data set [3] is 10%.

In the case of `CC(C)OC1(c2ccc(C#Cc3ccc(C(=O)O)cc3)cc2)CC1` [Compound 73, 4-[4-(1-Isopropoxycyclopropyl)-phenylethynyl]-benzoic acid], the (EFFICACY) RAR β in data set [1] was found to be 39%. The same compound returned a (EFFICACY) RAR γ in data set [2] of 24%.

`Cc1cc(C#Cc2ccc(C(=O)O)cc2)ccc1C1(OCc2ccccc2)CC1` [Compound 81, 4-[4-(1-Benzyloxycyclopropyl)-3-methyl-phenylethynyl]-benzoic acid]: the (EFFICACY) RAR β in data set [1] was 80%. In data set [2], this compound registered a (EFFICACY) RAR γ of 67%.

`Cc1cc(C#Cc2ccc(C(=O)O)cc2)ccc1C1(OC(C)C)CC1` [Compound 85, 4-[4-(1-Isopropoxycyclopropyl)-3-methyl-phenylethynyl]-benzoic acid] came in with a (EFFICACY) RAR β in data set [1] of 77%. In data set [2], the (EFFICACY) RAR γ stood at 65%. The compound also displayed a (EFFICACY) RAR α in data set [3] of 60%.

As to `Cc1cc(C#Cc2ccc(C(=O)O)cc2)ccc1C1(OCC(C)(C)C)CC1` [Compound 89, 4-[4-[1-(2,2-Dimethylpropyloxy)-cyclopropyl]-3-methyl-phenylethynyl]-benzoic acid], the (EFFICACY) RAR β in data set [1] was determined as 50%. This compound also registered a (EFFICACY) RAR γ in data set [2] of 46%. This compound had a (EFFICACY) RAR α in data set [3] of 20%.

`CCc1cc(C#Cc2ccc(C(=O)O)cc2)ccc1C1(OCc2ccccc2)CC1` [Compound 93, 4-[4-(1-Benzyloxycyclopropy)-3-ethyl-phenylethynyl]-benzoic acid] gave a (EFFICACY) RAR β in data set [1] of 39%. For the same compound, the (EFFICACY) RAR γ in data set [2] was determined as 55%. This compound also gave a (EFFICACY) RAR α in data set [3] of 114%.

Compound `CCCNC1(c2ccc(C#Cc3ccc(C(=O)O)cc3)cc2)CC1` [Compound 108, 4-[4-(1-Propylamino-cyclopropyl)-phenylethynyl]-benzoic acid] showed a (EFFICACY) RAR β in data set [1] of 36%. Further, in data set [2], the (EFFICACY) RAR γ was determined as 10%. The (EFFICACY) RAR α in data set [3] was found to be 15%.

Compound `CCCN(CCC)C1(c2ccc(C#Cc3ccc(C(=O)O)cc3)cc2)CC1` [Compound 110, 4-[4-(1-Dipropylamino-cyclopropyl)-phenylethynyl]-benzoic acid] came in with a (EFFICACY) RAR β in data set [1] of 44%. For the same compound, in data set [2], the (EFFICACY) RAR γ amounted to 42%.

The compound `O=C(O)c1ccc(C#Cc2ccc(C3(NCc4ccccc4)CC3)cc2)cc1` [Compound 112] returned a (EFFICACY) RAR β in data set [1] of 37%.

With `CC1(C)CCC(n2ccnc2)c2ccc(C#Cc3ccc(CC(=O)O)cc3)cc21` (stereo not shown) [Compound 137, [4-(5-Imidazol-1-yl-8,8-dimethyl-5,6,7,8-tetrahydro-naphthalen-2-yl-ethynyl)-phenyl]-acetic acid], the “Cutaneous Toxicity Score” value in data set [4] (100 nmole) was 1 ± 1; in data set [4] (300 nmole) it was 1 ± 1; in data set [4] (1000 nmole) it was 5 ± 2.
